According to patent US20240423942A1, “PHARMACEUTICAL COMPOSITION INCLUDING RETINOIC ACID AND CARBOHYDRATE AND USE THEREOF” (Mastery Biotech CO., LTD., priority 2022, published 2024):
pIC50: −log10 of the molar value.

Assays:
[1] = molecular target: SARS-COV-2 PLpro (Severe acute respiratory syndrome coronavirus 2, UniProt P0DTD1); type: biochemical; details: Example 1; 50 μM; FIG. 2 and Table 2
Method: The enzymatic activity of SARS-COV-2 PLpro obtained above was measured by a colorimetry-based peptide cleavage assay, using the 6-mer peptide substrate, FRLKGG-para-nitroanilide (FG6-pNA) (purity 97% by HPLC; GL Biochem Ltd., Shanghai, China). In the cleavage assay, the 6-mer peptide substrate was cleaved at the Gly-pNA bond to release free pNA, which turned the color of the solution to yellow. The enzymatic activity was determined by continuously monitoring the absorbance at 405 nm (A405) using a 96-well microplate spectrophotometer (Epoch™ 2, Biotek) at 30° C.
An enzyme inhibition assay was performed in a 96-well microplate. Each of the wells of the microplate contained a 50 mM phosphate buffer (pH 7.4). SARS-COV-2 PLPro obtained above (0.9 μM) was added into the respective well to form an enzyme solution. […]
20 μL of FG6-pNA (1.2 mM) described above was added into the test mixture of the respective group to initiate the enzyme reaction. […] The enzymatic activity was determined by continuously monitoring the absorbance at 405 nm (A405) using a 96-well microplate spectrophotometer (Epoch™ 2, Biotek). The reaction rate was calculated accordingly, wherein the reaction rate is the slope of the absorbance A405 versus time (seconds) for a total reaction time of 300 seconds.
The inhibition percentage was calculated using the following equation: […]

[2] = test system: H460 cancer cell line; test: In vitro cytotoxicity, Alamar blue cell viability, NCI-H460; type: cell-based; details: 24 hr
[3] = test system: A549 cancer cell line; test: In vitro cytotoxicity, Alamar blue cell viability, A549; type: cell-based; details: 24 hr
[4] = test system: Huh-7 cancer cell line; test: In vitro cytotoxicity, Alamar blue cell viability, Huh-7; type: cell-based; details: 24 hr
[5] = test system: AsPC-1 cancer cell line; test: In vitro cytotoxicity, Alamar blue cell viability, AsPC-1; type: cell-based; details: 24 hr
[6] = test system: HCT-116 cancer cell line; test: In vitro cytotoxicity, Alamar blue cell viability, HCT-116; type: cell-based; details: 24 hr
[7] = test system: SKOV-3 cancer cell line; test: In vitro cytotoxicity, Alamar blue cell viability, SK-OV-3; type: cell-based; details: 24 hr
[8] = test system: MDA-MB-231 cancer cell line; test: In vitro cytotoxicity, Alamar blue cell viability, MDA-MB-231; type: cell-based; details: 24 hr
[9] = test system: SARS-COV-2; details: Example 2; intranasal 0.35 mg/kg twice daily, 3-day treatment; FIG. 3
From the text: Golden Syrian hamsters (aged 5-6 weeks old and having an average weight of about 100 g) were obtained from the National Laboratory Animal Center (Taipei, Taiwan). The hamsters were housed in an animal room under specific-pathogen-free (SPF) conditions commonly applied in the art. Furthermore, water and feed were provided ad libitum for all the hamsters. All the experiments involving the hamsters were consigned to and reviewed and approved by the Institutional Animal Care and Use Committee (IACUC) of Academia Sinica (Taiwan).
The hamsters were infected with SARS-COV-2 (obtained from P3 Lab, the Genomics Research Center, Academia Sinica; WuHan wild type) in phosphate buffered saline (PBS) through intranasal inoculation at 1×10^4 plaque-forming units (PFU) on 12:00 PM so as to establish a SARS-CoV-2 animal model. […]
After the 3-day treatment, the hamsters were sacrificed, and the lungs thereof were collected for live viral load measurement by TCID50 assay in Vero E6 cells. The virus titer was determined in terms of the 50% tissue culture infectious dose (TCID50) using the Reed-Muench method. […]

**Q.** What does the source list for `CC1=C(/C=C/C(C)=C/C=C/C(C)=C\C(=O)NCCCO[C@@H]2O[C@H](CO)[C@H](O)[C@H](O)[C@H]2O)C(C)(C)CCC1` [Galactose-modified isotretinoin, (2Z,4E,6E,8E)-3,7-Dimethyl-N-(3-(((2R,3R,4S,5R,6R)-3,4,5-Trihydroxy-6-(Hydroxymethyl)Tetrahydro-2H-Pyran-2-Yl)Oxy) Propyl)-9-(2,6,6-Trimethylcyclohex-1-En-1-Yl) Nona-2,4,6,8-Tetraenamide]?
**A.** inhibition rate compared with Comparative_1 (isotretinoin only) [1]: significantly higher; cell viability ([2]; H460, FIG. 10): significantly reduce; pIC50 ([2]; Homo sapiens, NCI-H460, Non-small Cell Lung Cancer): 4.64; cell viability ([3]; A549, FIG. 9): significantly reduce; pIC50 ([3]; Homo sapiens, A549, Non-small Cell Lung Cancer): 4.66; pIC50 ([4]; Homo sapiens, Huh-7, Liver Cancer): 4.11; cell viability ([4]; Huh-7, FIG. 7): significantly reduce; cell viability ([5]; AsPC-1, FIG. 4): significantly reduce; pIC50 ([5]; Homo sapiens, ASPC1, AsPC-1, Pancreatic Cancer): 4.64; cell viability ([6]; HCT-116, FIG. 6): significantly reduce; pIC50 ([6]; Homo sapiens, HCT-116, Colon Cancer): 3.91; pIC50 ([7]; Homo sapiens, SK-OV-3, Ovarian Cancer): 4.86; cell viability ([7]; SKOV-3, FIG. 8): significantly reduce; pIC50 ([8]; Homo sapiens, MDA-MB-231, Breast Cancer): 3.94; cell viability ([8]; MDA-MB-231, FIG. 5): significantly reduce; TCID50 (lung virus titer) compared with isotretinoin and liposome-encapsulated isotretinoin [9]: significantly lower
